In the NIST ThermoML archive (doi:10.1021/je100832h):
± gives the expanded uncertainty stated by the source.

Conditions: Liquid; for mass density: 101.32 kPa, Vibrating tube method; for vapor or sublimation pressure: Ebulliometric method (Recirculating still)

CCCCCC [hexane]
Conditions	mass density [kg/m3]	vapor or sublimation pressure [kPa]
291.15 K	661.17 ± 0.52	–
292.98 K	–	15.88 ± 0.06
296.27 K	–	18.39 ± 0.06
298.15 K	654.9 ± 0.51	–
298.95 K	–	20.69 ± 0.07
302.2 K	–	23.81 ± 0.07
304.49 K	–	26.19 ± 0.08
306.76 K	–	28.77 ± 0.09
308.28 K	–	30.68 ± 0.09
310.14 K	–	32.97 ± 0.09
311.96 K	–	35.53 ± 0.1
313.7 K	–	37.95 ± 0.1
315.07 K	–	40.1 ± 0.11
316.51 K	–	42.3 ± 0.11
317.91 K	–	44.59 ± 0.12
318.15 K	636.5 ± 0.5	–
319.58 K	–	47.35 ± 0.12
320.83 K	–	49.63 ± 0.13
322.02 K	–	51.87 ± 0.13
323.45 K	–	54.51 ± 0.14
324.35 K	–	56.42 ± 0.14
325.74 K	–	59.15 ± 0.15
327.09 K	–	62.05 ± 0.16
327.99 K	–	64.02 ± 0.16
328.15 K	627 ± 0.5	–
329.13 K	–	66.61 ± 0.17
330.14 K	–	68.93 ± 0.17
330.93 K	–	70.86 ± 0.18
331.87 K	–	73.11 ± 0.18
332.87 K	–	75.62 ± 0.19
333.77 K	–	78.04 ± 0.19
334.61 K	–	80.11 ± 0.2
335.65 K	–	82.94 ± 0.2
336.53 K	–	85.4 ± 0.21
337.38 K	–	87.73 ± 0.21
338.26 K	–	90.28 ± 0.22
339.25 K	–	93.18 ± 0.23
340.1 K	–	95.79 ± 0.23
340.92 K	–	98.28 ± 0.24
341.17 K	–	99.08 ± 0.24
341.6 K	–	100.39 ± 0.24
341.88 K	–	101.32 ± 0.25
342.34 K	–	102.83 ± 0.25
343.01 K	–	104.95 ± 0.25
343.62 K	–	106.98 ± 0.26
344.52 K	–	110.01 ± 0.27
344.69 K	–	110.65 ± 0.27
345.43 K	–	113.16 ± 0.27
346.05 K	–	115.31 ± 0.27
346.66 K	–	117.46 ± 0.28
347.36 K	–	119.99 ± 0.28
348.05 K	–	122.52 ± 0.29
348.44 K	–	124.01 ± 0.29
349.04 K	–	126.23 ± 0.3
349.61 K	–	128.44 ± 0.3
349.82 K	–	129.32 ± 0.3
350.34 K	–	131.23 ± 0.31
350.82 K	–	133.07 ± 0.31
351.42 K	–	135.49 ± 0.32
351.93 K	–	137.54 ± 0.32
352.53 K	–	139.99 ± 0.33
352.83 K	–	141.31 ± 0.33
353.22 K	–	142.8 ± 0.34
353.87 K	–	145.75 ± 0.34
354.23 K	–	147.04 ± 0.34
354.71 K	–	149.34 ± 0.35
355.4 K	–	152.14 ± 0.35
355.66 K	–	153.31 ± 0.36
356.04 K	–	155.14 ± 0.36
356.52 K	–	157.29 ± 0.36
357.01 K	–	159.38 ± 0.37
357.38 K	–	161.05 ± 0.37
357.8 K	–	162.94 ± 0.38
358.47 K	–	166.02 ± 0.38
358.88 K	–	167.98 ± 0.39
359.18 K	–	169.31 ± 0.39
359.69 K	–	171.84 ± 0.4
359.9 K	–	172.89 ± 0.4
360.51 K	–	175.78 ± 0.4
360.8 K	–	177.31 ± 0.41
361.09 K	–	178.67 ± 0.41
361.54 K	–	180.95 ± 0.42
361.86 K	–	182.61 ± 0.42
362.43 K	–	185.32 ± 0.42
362.68 K	–	186.64 ± 0.43
362.98 K	–	188.2 ± 0.43
363.52 K	–	191.05 ± 0.44
363.95 K	–	193.35 ± 0.44

CCCCCCCCC [nonane]
Conditions	mass density [kg/m3]	vapor or sublimation pressure [kPa]
291.15 K	719.2 ± 0.56	–
298.15 K	713.85 ± 0.55	–
318.15 K	698.09 ± 0.54	–
328.15 K	690.4 ± 0.54	–
365.3 K	–	15.58 ± 0.06
369.25 K	–	18.07 ± 0.06
372.81 K	–	20.58 ± 0.07
376.46 K	–	23.49 ± 0.07
379.71 K	–	26.35 ± 0.08
382.25 K	–	28.78 ± 0.08
384.65 K	–	31.22 ± 0.09
387.02 K	–	33.8 ± 0.09
389.45 K	–	36.62 ± 0.1
391.8 K	–	39.52 ± 0.1
393.48 K	–	41.74 ± 0.11
395.26 K	–	44.15 ± 0.11
396.96 K	–	46.56 ± 0.12
398.71 K	–	49.15 ± 0.12
400.61 K	–	52.12 ± 0.13
402.01 K	–	54.42 ± 0.13
403.31 K	–	56.55 ± 0.14
404.73 K	–	59.01 ± 0.14
406.27 K	–	61.77 ± 0.15
407.78 K	–	64.58 ± 0.16
408.93 K	–	66.76 ± 0.16
410.11 K	–	69.09 ± 0.17
411.32 K	–	71.53 ± 0.17
412.52 K	–	74.01 ± 0.18
413.68 K	–	76.48 ± 0.18
414.83 K	–	79.03 ± 0.19
415.9 K	–	81.41 ± 0.19
417.22 K	–	84.44 ± 0.2
418.24 K	–	86.85 ± 0.2
419.28 K	–	89.41 ± 0.21
420.5 K	–	92.43 ± 0.21
421.62 K	–	95.25 ± 0.22
422.83 K	–	98.4 ± 0.23
423.2 K	–	99.35 ± 0.23
423.61 K	–	100.44 ± 0.23
423.94 K	–	101.32 ± 0.23
424.92 K	–	104 ± 0.24
425.83 K	–	106.5 ± 0.24
426.71 K	–	108.99 ± 0.25
427.6 K	–	111.54 ± 0.25
428.4 K	–	113.88 ± 0.26
429.26 K	–	116.44 ± 0.27
430.22 K	–	119.35 ± 0.27
431.09 K	–	122.04 ± 0.28
432.04 K	–	124.99 ± 0.28
432.94 K	–	127.82 ± 0.29
433.74 K	–	130.52 ± 0.3
434.68 K	–	133.6 ± 0.3
435.58 K	–	136.62 ± 0.31
436.31 K	–	139.12 ± 0.31
437.11 K	–	141.9 ± 0.32
437.95 K	–	144.81 ± 0.33
438.67 K	–	147.42 ± 0.33
439.45 K	–	150.23 ± 0.34
440.11 K	–	152.67 ± 0.34
440.76 K	–	155.08 ± 0.35
441.41 K	–	157.53 ± 0.35
442.05 K	–	159.98 ± 0.36
442.77 K	–	162.8 ± 0.36
443.49 K	–	165.61 ± 0.37
444.23 K	–	168.53 ± 0.38
444.93 K	–	171.39 ± 0.38
445.49 K	–	173.63 ± 0.39
446.19 K	–	176.52 ± 0.39
446.75 K	–	178.85 ± 0.4
447.44 K	–	181.82 ± 0.41
448.07 K	–	184.55 ± 0.41
448.61 K	–	186.86 ± 0.41
449.27 K	–	189.75 ± 0.42
449.81 K	–	192 ± 1
450.56 K	–	195.54 ± 0.44
